According to PubChem BioAssay (NCI):
Where “and” joins values, the source holds several entries; their conditions need not be identical. Identical values can stand only once.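 1) Cells in 96-well plates. 2) Compound, 48 h, 5 concentrations. 3) Linear interpolation between surrounding doses. 4) Unreached endpoint = highest concentration. Abbreviation: GI50, concentration required for 50% inhibition of growth. TGI denotes the concentration required for complete inhibition of growth.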

Legend:
Assay in all cases: DTP human tumour cell line panel, 48 h
[1] = tested on: EKVX NSCLC
[2] = tested on: BT-549 breast
[3] = tested on: NCI-H522 lung
[4] = tested on: A549 NSCLC
[5] = tested on: RPMI-8226 leukemia
[6] = tested on: SN12C renal
[7] = tested on: SW-620 colon
[8] = tested on: SNB-19 CNS
[9] = tested on: ACHN renal
[10] = tested on: NCI-H23 lung

`Nc1nc(-c2ccc3c(c2)/C(=C\c2cc(Br)c(O)c(Br)c2)C(=O)N3)cs1` was tested, and the GI50 [1] was over 25 µM, the TGI [1] was over 25 µM and the GI50 [2] was 11.4 µM. The TGI [2] was over 23.8 µM, the GI50 [3] was 8.12 µM and the TGI [3] was 19.4 µM. For the same compound, the GI50 [4] was over 25000 nM, the TGI [4] was over 25 µM and the GI50 [5] was 14.9 µM. The TGI [5] was over 25 µM, the GI50 [6] was over 25000 nM and the TGI [6] was over 25 µM. It also gave a GI50 [7] of 10.6 µM, a TGI [7] of over 25 µM and a GI50 [8] of over 25000 nM. For the same compound, the TGI [8] was over 25 µM, the GI50 [9] was over 23900 nM and the TGI [9] was over 25 µM. It also gave a GI50 [10] of 14.3 µM and a TGI [10] of over 25 µM.

With `C[C@]12CCC(=O)C=C1C[C@@H](O)[C@@H]1[C@@H]2CC[C@@]2(C)[C@H]1CC[C@]2(C)O` the TGI [1] was over 100 µM, the TGI [2] was over 100 µM and the TGI [3] was over 100 µM. The TGI [4] was over 100 µM, the TGI [5] was over 100 µM and the TGI [6] was over 100 µM. The TGI [7] was over 100 µM, the TGI [8] was over 100 µM and the TGI [9] was over 100 µM. For the same compound, the TGI [10] was over 100 µM.

With `NC1CC(=O)c2c(-c3cccs3)sc(-c3cccs3)c21` (configuration not stated) the GI50 [1] was 51.3 µM, the TGI [1] was over 100 µM and the GI50 [2] was 19.5 µM. For the same compound, the TGI [2] was 63.8 µM, the GI50 [3] was 22.1 µM and the TGI [3] was 87.5 µM. For the same compound, the GI50 [4] was 53200 nM, the TGI [4] was over 100 µM and the GI50 [5] was 12.3 µM. For the same compound, the TGI [5] was 49.7 µM, the GI50 [6] was 24300 nM and the TGI [6] was 69.8 µM. It also gave a GI50 [7] of 9.11 µM, a TGI [7] of 58 µM and a GI50 [8] of 36000 nM. For the same compound, the TGI [8] was over 100 µM, the GI50 [9] was 10000 nM and the TGI [9] was 25.5 µM. It also gave a GI50 [10] of 23.1 µM and a TGI [10] of 57.6 µM.

`CN(C(=O)C(C)(C)C)c1ccccc1I(=O)=O` was tested, and the GI50 [1] was over 100 µM, the TGI [1] was over 100 µM and the GI50 [2] was over 100 µM. The TGI [2] was over 100 µM, the GI50 [3] was 16.1 µM and the TGI [3] was 30 µM. It also gave a GI50 [4] of over 100000 nM, a TGI [4] of over 100 µM and a GI50 [5] of 18.8 µM. For the same compound, the TGI [5] was 66 µM, the GI50 [6] was over 100000 nM and the TGI [6] was over 100 µM. It also gave a GI50 [7] of over 100 µM, a TGI [7] of over 100 µM and a GI50 [8] of over 100000 nM. For the same compound, the TGI [8] was over 100 µM, the GI50 [9] was over 100000 nM and the TGI [9] was over 100 µM. It also gave a GI50 [10] of over 100 µM and a TGI [10] of over 100 µM.

In the case of `C=C1C(=O)O[C@@H]2/C=C(/C)[C@@H](OC(C)=O)C[C@@H](O)/C(C)=C\[C@@H](OC(=O)[C@]3(C)O[C@@H]3C)[C@@H]12`, the TGI [1] is reported as 24.4 µM, the TGI [2] is reported as 18.8 µM and the TGI [3] is reported as 2.81 µM. It also gave a TGI [4] of over 100 µM, a TGI [5] of 26.3 µM and a TGI [6] of 24.7 µM. It also gave a TGI [7] of 18.5 µM, a TGI [8] of over 100 µM and a TGI [9] of 26.8 µM. It also gave a TGI [10] of 35.6 µM.

`COC(=O)C1=C(C)NC(=S)NC1c1ccc(N(CCCl)CCCl)cc1Cl` (configuration not stated) was tested, and the TGI [1] was over 37.8 µM, the GI50 [2] was 73.5 µM and the TGI [2] was over 100 µM. For the same compound, the TGI [3] was 81.9 µM, the TGI [4] was over 58.7 µM and the TGI [5] was over 4.64 µM. The TGI [6] was over 100 µM, the TGI [7] was over 100 µM and the TGI [8] was over 100 µM. The TGI [9] was over 75.9 µM and the TGI [10] was over 62.1 µM.

`Nc1nc(N)c2c(ccc3c2ccn3Cc2cccc([N+](=O)[O-])c2)n1` was tested, and the GI50 [1] was 1.32 µM, the GI50 [2] was 1.25 µM and the TGI [2] was 3.05 µM. For the same compound, the GI50 [3] was 0.0607 µM, the TGI [3] was 1.82 µM and the GI50 [4] was 4.96 nM. For the same compound, the TGI [4] was 1.57 µM, the GI50 [5] was 0.0585 µM and 0.0185 µM and the GI50 [6] was 61.5 nM. The TGI [6] was 1.65 µM, the GI50 [7] was 0.00556 µM and the TGI [7] was 1.73 µM and 1.64 µM. The GI50 [8] was 89.8 nM, the TGI [8] was 2.42 µM and the GI50 [9] was 37.2 nM. The TGI [9] was 1.74 µM, the GI50 [10] was 0.0566 µM and the TGI [10] was 2.46 µM.

For `O=C1OC(OC/C(Br)=C(\Br)COC2OC(=O)C(Cl)=C2Cl)C(Cl)=C1Cl` (configuration not stated), the TGI [1] was 22.8 µM, the TGI [2] was 6.45 µM and the TGI [3] was 3.24 µM. For the same compound, the TGI [4] was 34.3 µM, the TGI [5] was 3.94 µM and the TGI [6] was 16.6 µM. For the same compound, the TGI [7] was 9.9 µM, the TGI [8] was 34.3 µM and the TGI [9] was 13.7 µM. For the same compound, the TGI [10] was 14 µM.

`Oc1c(C(Nc2ccccn2)c2ccccc2)ccc2cccnc12` (configuration not stated) was tested, and the TGI [1] was 28.6 µM, the TGI [2] was over 93.4 µM and the TGI [3] was 11.8 µM. For the same compound, the TGI [4] was over 100 µM, the TGI [5] was 29.3 µM and the TGI [6] was 17.4 µM. The TGI [7] was over 100 µM, the TGI [8] was over 100 µM and the TGI [9] was 29.1 µM. The TGI [10] was over 77 µM.

Compound `O=C1/C=C/[C@@H](O)[C@@H]2C[C@@H](O)C[C@H]2/C=C/CCC[C@H](CCO)O1` has a GI50 [1] of 0.253 µM, a TGI [1] of over 100 µM and a GI50 [2] of 0.33 µM. The TGI [2] was over 31.5 µM, the GI50 [3] was 0.211 µM and the TGI [3] was 0.604 µM. It also gave a GI50 [4] of 401 nM, a TGI [4] of over 100 µM and a GI50 [5] of 0.33 µM. For the same compound, the TGI [5] was 6.34 µM, the GI50 [6] was 314 nM and the TGI [6] was over 80.9 µM. For the same compound, the GI50 [7] was 0.216 µM, the TGI [7] was 0.646 µM and the GI50 [8] was 377 nM. For the same compound, the TGI [8] was over 100 µM, the GI50 [9] was 343 nM and the TGI [9] was over 100 µM. The GI50 [10] was 0.227 µM and the TGI [10] was 2.3 µM.

`COc1cc2ncnc(Oc3ccc(NC(=O)Nc4ccc(CN5CCOCC5)c(C(F)(F)F)c4)c4ccccc34)c2cc1OC` gave a GI50 [1] of 0.463 µM, a TGI [1] of 5.91 µM and a GI50 [2] of 1.11 µM. It also gave a TGI [2] of 5.28 µM, a GI50 [3] of 0.419 µM and a TGI [3] of 3.25 µM. The GI50 [4] was 734 nM, the TGI [4] was 10.5 µM and the GI50 [5] was 0.297 µM. It also gave a TGI [5] of 2.02 µM, a GI50 [6] of 292 nM and a TGI [6] of 1.71 µM. The GI50 [7] was 1.04 µM, the TGI [7] was 7.43 µM and the GI50 [8] was 2350 nM. For the same compound, the TGI [8] was 12.2 µM, the GI50 [9] was 303 nM and the TGI [9] was 1.41 µM. It also gave a GI50 [10] of 0.785 µM and a TGI [10] of 4.16 µM.

`CCC(=O)NC1=C(Cl)C(=O)C(NC(=O)CC)=C(Cl)C1=O` showed a GI50 [1] of 18.1 µM, a TGI [1] of 33.1 µM and a GI50 [2] of 16 µM. For the same compound, the TGI [2] was 29.7 µM, the GI50 [3] was 5.86 µM and the TGI [3] was 10.7 µM. It also gave a GI50 [4] of 29400 nM, a TGI [4] of over 61.8 µM and a GI50 [5] of 8.98 µM. The TGI [5] was 30.4 µM, the GI50 [6] was 17700 nM and the TGI [6] was 31.9 µM. The GI50 [7] was 5.77 µM, the TGI [7] was 11 µM and the GI50 [8] was over 41000 nM. For the same compound, the TGI [8] was over 55.7 µM, the GI50 [9] was 5600 nM and the TGI [9] was 10.9 µM. It also gave a GI50 [10] of 18.5 µM and a TGI [10] of 40.8 µM.

`CC(C)(C)NCC(O)c1ccccc1Cl` (configuration not stated) showed a GI50 [1] of over 100 µM, a TGI [1] of over 100 µM and a GI50 [2] of over 100 µM. It also gave a TGI [2] of over 100 µM, a GI50 [3] of over 100 µM and a TGI [3] of over 100 µM. The GI50 [4] was over 100000 nM, the TGI [4] was over 100 µM and the GI50 [5] was over 100 µM. It also gave a TGI [5] of over 100 µM, a GI50 [6] of over 100000 nM and a TGI [6] of over 100 µM. The GI50 [7] was over 100 µM, the TGI [7] was over 100 µM and the GI50 [8] was over 100000 nM. The TGI [8] was over 100 µM, the GI50 [9] was over 100000 nM and the TGI [9] was over 100 µM. For the same compound, the GI50 [10] was over 100 µM and the TGI [10] was over 100 µM.

For `OC(c1cc(C(F)(F)F)nc2c(Cl)cc(Cl)cc12)C1CCCCN1` (configuration not stated), the TGI [1] was over 100 µM, the TGI [2] was 28.2 µM and the TGI [3] was over 21 µM. For the same compound, the TGI [4] was over 52.2 µM, the TGI [5] was 9.19 µM and the TGI [6] was over 39.6 µM. The TGI [7] was 19.2 µM, the TGI [8] was over 52.3 µM and the TGI [9] was over 43.7 µM. It also gave a TGI [10] of 23.8 µM.

`COc1cccc(N2CC(O)=C(c3nc4ccccc4s3)C2=N)c1` was tested, and the GI50 [1] was 9.24 µM, the TGI [1] was over 100 µM and the GI50 [2] was 0.726 µM. It also gave a TGI [2] of over 100 µM, a GI50 [3] of 0.0588 µM and a GI50 [4] of 656 nM. For the same compound, the TGI [4] was over 56.6 µM, the TGI [5] was over 100 µM and the GI50 [6] was 379 nM. For the same compound, the TGI [6] was 5.63 µM, the GI50 [7] was 0.341 µM and the TGI [7] was over 100 µM. The GI50 [8] was 702 nM, the TGI [8] was over 100 µM and the GI50 [9] was 307 nM. The TGI [9] was over 60.2 µM, the GI50 [10] was 0.652 µM and the TGI [10] was over 25.2 µM.
